How the values were obtained:
Test in all cases: Test C greenhouse herbicide test, pre- and postemergence
Type in all cases: in vivo
[1] = tested on: barnyardgrass (Echinochloa crus-galli)
Outline: (§1)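 Visual 0–100 injury score (100 = complete control) taken against untreated controls after 13–15 d in greenhouse. Test chemicals, formulated in solvent plus surfactant, applied preemergence to seeds in loam–sand soil or postemergence to 1- to 4-leaf plants (2–18 cm).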

[2] = tested on: blackgrass (Alopecurus myosuroides)
Outline: as §1

corn (Zea mays) = tested on: corn (Zea mays)
Outline: as §1

[3] = tested on: crabgrass, large (large crabgrass, Digitaria sanguinalis)
Outline: as §1

[4] = tested on: foxtail, giant (giant foxtail, Setaria faberii)
Outline: as §1

[5] = tested on: galium (catchweed bedstraw, Galium aparine)
Outline: as §1

[6] = tested on: lambsquarters (Chenopodium album)
Outline: as §1

[7] = tested on: nutsedge, yellow (yellow nutsedge, Cyperus esculentus)
Outline: as §1

[8] = tested on: oilseed rape (Brassica napus)
Outline: as §1

[9] = tested on: pigweed (Amaranthus retroflexus)
Outline: as §1

[10] = tested on: ragweed (common ragweed, Ambrosia elatior)
Outline: as §1

[11] = tested on: ryegrass, Italian (Italian ryegrass, Lolium multiflorum)
Outline: as §1

soybean (Glycine max) = tested on: soybean (Glycine max)
Outline: as §1

[12] = tested on: velvetleaf (Abutilon theophrasti)
Outline: as §1

[13] = tested on: wheat (winter wheat, Triticum aestivum)
Outline: as §1

[14] = Postemergence, 31 g ai/ha, 0 to 100 scale (0 no effect, 100 complete control)
[15] = Postemergence, 125 g ai/ha, scale 0 to 100, 0 is no effect, 100 is complete control
[16] = Postemergence, 250 g ai/ha, scale 0 to 100, 0 no effect, 100 complete control, 13 to 15 d
[17] = Preemergence, 31 g ai/ha, scale 0 to 100, 0 is no effect, 100 is complete control
[18] = Preemergence, 62 g ai/ha, scale 0 to 100, 0 is no effect, 100 is complete control
[19] = Preemergence, 125 g ai/ha, scale 0 to 100, 0 is no effect, 100 is complete control
[20] = Preemergence, 250 g ai/ha, scale 0 to 100, 0 no effect, 100 complete control
[21] = postemergence, 62 g ai/ha, scale 0 to 100, 0 no effect, 100 complete control

Cc1ccc2sc(C)c(-c3c(OC(=O)OC(C)C)c(C)nn(C)c3=O)c2c1 [Compound 66]
Barnyardgrass plant response rating [1, 14]: 15
Plant response rating, Barnyardgrass [1, 15]: 30
Plant response rating, Barnyardgrass [1, 16]: 35
Plant response rating, Barnyardgrass [1, 17]: 0
Plant response rating, Barnyardgrass [1, 18]: 20
Plant response rating, Barnyardgrass [1, 19]: 40
Barnyardgrass plant response rating [1, 20]: 70
Barnyardgrass plant response rating [1, 21]: 20
Blackgrass plant response rating [2, 14]: 10
Plant response rating, Blackgrass [2, 15]: 40
Plant response rating, Blackgrass [2, 16]: 60
Plant response rating, Blackgrass [2, 17]: 10
Plant response rating, Blackgrass [2, 18]: 30
Plant response rating, Blackgrass [2, 19]: 35
Blackgrass plant response rating [2, 20]: 30
Blackgrass plant response rating [2, 21]: 15
Corn plant response rating (corn (Zea mays); [14]): 0
Plant response rating, Corn (corn (Zea mays); [15]): 5
Plant response rating, Corn (corn (Zea mays); [16]): 25
Plant response rating, Corn (corn (Zea mays); [17]): 0
Plant response rating, Corn (corn (Zea mays); [18]): 0
Plant response rating, Corn (corn (Zea mays); [19]): 0
Corn plant response rating (corn (Zea mays); [20]): 0
Corn plant response rating (corn (Zea mays); [21]): 0
Crabgrass, Large plant response rating [3, 14]: 25
Plant response rating, Crabgrass, Large [3, 15]: 35
Plant response rating, Crabgrass, Large [3, 16]: 45
Plant response rating, Crabgrass, Large [3, 17]: 75
Plant response rating, Crabgrass, Large [3, 18]: 65
Plant response rating, Crabgrass, Large [3, 19]: 75
Crabgrass, Large plant response rating [3, 20]: 85
Crabgrass, Large plant response rating [3, 21]: 30
Foxtail, Giant plant response rating [4, 14]: 40
Plant response rating, Foxtail, Giant [4, 15]: 65
Plant response rating, Foxtail, Giant [4, 16]: 80
Plant response rating, Foxtail, Giant [4, 17]: 70
Plant response rating, Foxtail, Giant [4, 18]: 75
Plant response rating, Foxtail, Giant [4, 19]: 80
Foxtail, Giant plant response rating [4, 20]: 85
Foxtail, Giant plant response rating [4, 21]: 55
Galium plant response rating [5, 14]: 90
Plant response rating, Galium [5, 15]: 95
Plant response rating, Galium [5, 16]: 95
Plant response rating, Galium [5, 17]: 90
Plant response rating, Galium [5, 18]: 90
Plant response rating, Galium [5, 19]: 95
Galium plant response rating [5, 20]: 98
Galium plant response rating [5, 21]: 95
Lambsquarters plant response rating [6, 14]: 90
Plant response rating, Lambsquarters [6, 15]: 100
Plant response rating, Lambsquarters [6, 16]: 100
Plant response rating, Lambsquarters [6, 17]: 80
Plant response rating, Lambsquarters [6, 18]: 85
Plant response rating, Lambsquarters [6, 19]: 85
Lambsquarters plant response rating [6, 20]: 98
Lambsquarters plant response rating [6, 21]: 100
Nutsedge, Yellow plant response rating [7, 14]: 65
Plant response rating, Nutsedge, Yellow [7, 15]: 85
Plant response rating, Nutsedge, Yellow [7, 16]: 85
Plant response rating, Nutsedge, Yellow [7, 17]: 35
Plant response rating, Nutsedge, Yellow [7, 18]: 35
Plant response rating, Nutsedge, Yellow [7, 19]: 30
Nutsedge, Yellow plant response rating [7, 20]: 65
Nutsedge, Yellow plant response rating [7, 21]: 70
Oilseed Rape plant response rating [8, 14]: 0
Plant response rating, Oilseed Rape [8, 15]: 10
Plant response rating, Oilseed Rape [8, 16]: 0
Plant response rating, Oilseed Rape [8, 17]: 0
Plant response rating, Oilseed Rape [8, 18]: 0
Plant response rating, Oilseed Rape [8, 19]: 0
Oilseed Rape plant response rating [8, 20]: 5
Oilseed Rape plant response rating [8, 21]: 10
Pigweed plant response rating [9, 14]: 95
Plant response rating, Pigweed [9, 15]: 100
Plant response rating, Pigweed [9, 16]: 100
Plant response rating, Pigweed [9, 17]: 100
Plant response rating, Pigweed [9, 18]: 100
Plant response rating, Pigweed [9, 19]: 100
Pigweed plant response rating [9, 20]: 100
Pigweed plant response rating [9, 21]: 98
Ragweed plant response rating [10, 14]: 85
Plant response rating, Ragweed [10, 15]: 90
Plant response rating, Ragweed [10, 16]: 100
Plant response rating, Ragweed [10, 17]: 75
Plant response rating, Ragweed [10, 18]: 85
Plant response rating, Ragweed [10, 19]: 90
Ragweed plant response rating [10, 20]: 95
Ragweed plant response rating [10, 21]: 85
Ryegrass, Italian plant response rating [11, 14]: 60
Plant response rating, Ryegrass, Italian [11, 15]: 85
Plant response rating, Ryegrass, Italian [11, 16]: 85
Plant response rating, Ryegrass, Italian [11, 17]: 55
Plant response rating, Ryegrass, Italian [11, 18]: 50
Plant response rating, Ryegrass, Italian [11, 19]: 80
Ryegrass, Italian plant response rating [11, 20]: 90
Ryegrass, Italian plant response rating [11, 21]: 80
Soybean plant response rating (soybean (Glycine max); [14]): 0
Plant response rating, Soybean (soybean (Glycine max); [15]): 10
Plant response rating, Soybean (soybean (Glycine max); [16]): 5
Plant response rating, Soybean (soybean (Glycine max); [17]): 0
Plant response rating, Soybean (soybean (Glycine max); [18]): 0
Plant response rating, Soybean (soybean (Glycine max); [19]): 0
Soybean plant response rating (soybean (Glycine max); [20]): 0
Soybean plant response rating (soybean (Glycine max); [21]): 10
Velvetleaf plant response rating [12, 14]: 55
Plant response rating, Velvetleaf [12, 15]: 85
Plant response rating, Velvetleaf [12, 16]: 95
Plant response rating, Velvetleaf [12, 17]: 15
Plant response rating, Velvetleaf [12, 18]: 60
Plant response rating, Velvetleaf [12, 19]: 70
Velvetleaf plant response rating [12, 20]: 85
Velvetleaf plant response rating [12, 21]: 75
Wheat plant response rating [13, 14]: 0
Plant response rating, Wheat [13, 15]: 0
Plant response rating, Wheat [13, 16]: 0
Plant response rating, Wheat [13, 17]: 0
Plant response rating, Wheat [13, 18]: 0
Plant response rating, Wheat [13, 19]: 0
Wheat plant response rating [13, 20]: 40
Wheat plant response rating [13, 21]: 0
